Source: patent publication US20250034150A1, “BTK INHIBITORS” (BIOGEN MA INC., priority 2021, published 2025)
Where a name gives a salt, the structure may show the parent alone.

Molecular target: T1, BTK (Homo sapiens, UniProt Q06187)
T1 construct: purchased Upstate 14-552
Test: In Vitro BTK Kinase Assay: Btk-PolyGAT-LS Assay
Type: biochemical
Conditions: active BTK enzyme 0.25 nM, polyGAT 100 nM, 30 minutes, TRF readout; read-out: In Vitro BTK Kinase Assay IC50 Score
Method: The purpose of the BTK in vitro assay is to determine compound potency against BTK through the measurement of IC50. Compound inhibition is measured after monitoring the amount of phosphorylation of a fluorescein-labeled polyGAT peptide (Invitrogen PV3611) in the presence of active BTK enzyme (Upstate 14-552), ATP, and inhibitor. The BTK kinase reaction was done in a black 96 well plate (costar 3694). For a typical assay, a 24 μL aliquot of a ATP/peptide master mix (final concentration; ATP […], polyGAT 100 nM) in kinase buffer (10 mM Tris-HCl pH 7.5, 10 mM MgCl2, 200 μM […], 5 mM DTT, 0.01% Triton X-100, and 0.2 mg/ml casein) is added to each well. Next, […] of a 4-fold, 40× compound titration in 100% DMSO solvent is added, followed by adding 15 μL of BTK enzyme mix in 1× kinase buffer (with a final concentration of 0.25 nM). The assay is incubated for 30 minutes before being stopped with 28 μL of a 50 mM EDTA solution. Aliquots (5 uL) of the kinase reaction are transferred to a low volume white 384 well plate (Coming 3674), and 5 μL of a 2× detection buffer (Invitrogen PV3574, with 4 nM Tb—PY20 antibody, Invitrogen PV3552) is added. The plate is covered and incubated for 45 minutes at room temperature. Time resolved fluorescence (TRF) on Molecular Devices M5 (332 nm excitation; 488 nm emission; 518 nm fluorescein emission) is measured. IC50 values are calculated using a four parameter fit with 100% enzyme activity determined from the DMSO control and 0% activity from the EDTA control.

T1 sequence (Q06187 whole entry): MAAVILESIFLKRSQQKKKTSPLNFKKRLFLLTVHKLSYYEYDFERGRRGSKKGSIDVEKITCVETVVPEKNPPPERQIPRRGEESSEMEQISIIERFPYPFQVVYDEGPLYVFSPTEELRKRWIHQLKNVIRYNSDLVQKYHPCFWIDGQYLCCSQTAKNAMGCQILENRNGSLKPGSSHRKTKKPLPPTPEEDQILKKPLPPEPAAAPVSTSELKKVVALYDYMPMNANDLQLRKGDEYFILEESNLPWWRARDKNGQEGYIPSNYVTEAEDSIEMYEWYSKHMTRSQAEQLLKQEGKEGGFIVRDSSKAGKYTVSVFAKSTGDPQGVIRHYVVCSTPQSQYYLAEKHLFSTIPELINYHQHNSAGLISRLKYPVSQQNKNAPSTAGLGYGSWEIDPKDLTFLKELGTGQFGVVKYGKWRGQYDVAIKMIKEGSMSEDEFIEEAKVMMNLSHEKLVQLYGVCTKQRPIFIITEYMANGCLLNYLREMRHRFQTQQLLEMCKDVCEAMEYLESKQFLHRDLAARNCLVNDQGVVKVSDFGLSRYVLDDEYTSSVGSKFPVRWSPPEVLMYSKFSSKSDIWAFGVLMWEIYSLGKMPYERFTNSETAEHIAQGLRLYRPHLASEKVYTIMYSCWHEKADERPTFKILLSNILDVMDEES

Row | Compound | IC50 [nM]
1 | Cn1cc(-c2cn3nccc3c(N3CCC(C)(CNC(=O)c4cn(C(C)(C)C)nn4)C3)n2)cn1 (stereo not shown) [Example 49, 1-(tert-butyl)-N-((3-methyl-1-(6-(1-methyl-1H-pyrazol-4-yl)pyrazolo[1,5-a]pyrazin-4-yl)pyrrolidin-3-yl)methyl)-1H-1,2,3-triazole-4-carboxamide] | 1000 to 10000
2 | Cn1cc(-c2cn3nccc3c(N3C[C@H]4CC[C@@H](C3)[C@H]4CNC(=O)c3noc(C(C)(C)C)n3)n2)cn1 [Example 164, 5-(tert-butyl)-N-(((1R,5S,8s)-3-(6-(1-methyl-1H-pyrazol-4-yl)pyrazolo[1,5-a]pyrazin-4-yl)-3-azabicyclo[3.2.1]octan-8-yl)methyl)-1,2,4-oxadiazole-3-carboxamide] | 10 to 1000
3 | Cn1cc(-c2cc(-c3ccc(CNC(=O)c4cn(C(C)(C)C)nn4)cc3)n3cnnc3c2)cn1 [Example 75, 1-(tert-butyl)-N-(4-(7-(1-methyl-1H-pyrazol-4-yl)-[1,2,4]triazolo[4,3-a]pyridin-5-yl)benzyl)-1H-1,2,3-triazole-4-carboxamide] | 10 to 1000
4 | C[C@@H]1CN(c2nc(-c3cnn(C)c3)cn3nccc23)CC[C@H]1CNC(=O)c1noc(C2(C)CC2)n1 (single isomer, unassigned) [Example 145] | 10 to 1000
5 | CC(C)(C)n1ccc(C(=O)NCc2ccc(-c3nc(N4CCOCC4)cn4nccc34)cc2)n1 [Example 28, 1-(tert-butyl)-N-(4-(6-morpholinopyrazolo[1,5-a]pyrazin-4-yl)benzyl)-1H-pyrazole-3-carboxamide] | 1000 to 10000
6 | Cn1cc(-c2cc(-c3ccc(CNC(=O)c4cnn(C(C)(C)C)c4)cc3)n3cnnc3c2)cn1 [Example 77, 1-(tert-butyl)-N-(4-(7-(1-methyl-1H-pyrazol-4-yl)-[1,2,4]triazolo[4,3-a]pyridin-5-yl)benzyl)-1H-pyrazole-4-carboxamide] | 10 to 1000
7 | Cn1cc(-c2cn3nccc3c(N3CCC(C)(CNC(=O)c4noc(C(C)(C)C)n4)C3)n2)cn1 (stereo not shown) [Example 42, 5-(tert-butyl)-N-((3-methyl-1-(6-(1-methyl-1H-pyrazol-4-yl)pyrazolo[1,5-a]pyrazin-4-yl)pyrrolidin-3-yl)methyl)-1,2,4-oxadiazole-3-carboxamide] | 1000 to 10000
8 | CC(NC(=O)c1cn(C(C)(C)C)nn1)C1CCN(c2nc(-c3cnn(C)c3)cn3nccc23)CC1 (stereo not shown) [Example 163, 1-(tert-butyl)-N-(1-(1-(6-(1-methyl-1H-pyrazol-4-yl)pyrazolo[1,5-a]pyrazin-4-yl)piperidin-4-yl)ethyl)-1H-1,2,3-triazole-4-carboxamide] | 10 to 1000
9 | Cn1cc(-c2cn3nccc3c(-c3cc(F)c(CNC(=O)c4ccn(C(C)(C)C)n4)cc3F)n2)cn1 [Example 96, 1-(tert-butyl)-N-(2,5-difluoro-4-(6-(1-methyl-1H-pyrazol-4-yl)pyrazolo[1,5-a]pyrazin-4-yl)benzyl)-1H-pyrazole-3-carboxamide] | 10 to 1000

The next lines start with the values.

Row | IC50 [nM] | Compound
10 | 10 to 1000 | C[C@@H]1CN(c2nc(-c3cnn(C)c3)cn3nccc23)CC[C@@H]1CNC(=O)c1cn(C(C)(C)C)nn1 (single isomer, unassigned) [Example 150]
11 | 10 to 1000 | C[C@H]1C[C@H](CNC(=O)c2cn(C(C)(C)C)nn2)CCN1c1nc(-c2cnn(C)c2)cn2nccc12 (single isomer, unassigned) [Example 140]
12 | 1 to 10 | Cc1cc(-c2nc(N3CCN(C)CC3)cn3nccc23)ccc1CNC(=O)c1noc(C2(C)CC2)n1 [Example 131, N-(2-methyl-4-(6-(4-methylpiperazin-1-yl)pyrazolo[1,5-a]pyrazin-4-yl)benzyl)-5-(1-methylcyclopropyl)-1,2,4-oxadiazole-3-carboxamide trifluoroacetate]
13 | 1 to 10 | CC(C)(C)c1nc(C(=O)NCc2ccc(-c3nc(N4CCC4)cn4nccc34)cc2)no1 [Example 134, N-(4-(6-(azetidin-1-yl)pyrazolo[1,5-a]pyrazin-4-yl)benzyl)-5-(tert-butyl)-1,2,4-oxadiazole-3-carboxamide]
